pEC50: −log10 of the molar value.
Columns and labels:
[1] = molecular target: T1, LXRβ LBD (GST) (Homo sapiens, UniProt P55055); assay: Time-resolved LXR FRET assay (LanthaScreen TR-FRET LXRβ assay kit); assay type: biochemical; conditions: 10 nM LXRβ LBD (GST), read after 6 h; R^2 of fit given; read-out: TR-FRET activity (EC50) LXRβ
T1 construct: 5 nM LXRα LBD (GST); 10 nM LXRβ LBD (GST); purchased ThermoFisher Scientific PV4658
T1 sequence (P55055 222-460 limits assumed): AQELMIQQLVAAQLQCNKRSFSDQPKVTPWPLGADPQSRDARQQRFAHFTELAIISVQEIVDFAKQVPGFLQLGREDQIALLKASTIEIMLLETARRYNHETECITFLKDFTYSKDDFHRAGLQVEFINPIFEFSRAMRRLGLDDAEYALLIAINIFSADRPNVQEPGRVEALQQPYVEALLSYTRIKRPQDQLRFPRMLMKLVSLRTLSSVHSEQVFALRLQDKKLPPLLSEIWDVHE
Description: The biochemical TR-FRET assays were performed using the LanthaScreen TR-FRET LXRα Coactivator Assay Kit, goat (ThermoFisher Scientific, PV4655), and the LanthaScreen TR-FRET LXRβ assay kit, goat (ThermoFisher Scientific, PV4658), according to the manufacturer’s instructions using the following concentrations: 5 nM LXRα LBD (GST); 10 nM LXRβ LBD (GST); 500 nM fluorescein-TRAP220/DRIP-2; 200 nM fluorescein-D22; 10 nM Tb anti-GST antibody. The TR-FRET signals were measured after 6 h using a TECAN SPARK multimode microplate reader with the following settings: first excitation wavelength: 360 nm (bandwidth 35 nm), first emission wavelength: 485 nm (bandwidth 20 nm); second excitation wavelength: 360 nm (bandwidth 35 nm), second emission wavelength: 535 nm (bandwidth 25 nm); integration time: 200 μs; lag time: 100 μs; settle time: 0 ms.

[2] = test system: Akt1^Myr; Myc^OE HCC organoids; assay: Cell viability analysis in HCC organoids (CellTiter-Glo 3D); assay type: cell-based, murine; conditions: 5d, with 4 μM sorafenib
Description: Finally, we analyzed the efficacy of compound 40 in preclinical treatment studies in three-dimensional liver cancer organoid cultures. HCC organoids driven by myristoylated Akt1 and overexpressed Myc (Akt1^Myr; Myc^OE) were isolated from murine liver tumors and subjected to monotherapies of sorafenib, compound 40, or a combination thereof (Figure 7C). The therapeutic outcome was side-by-side compared with combinatorial therapies comprising the established agonists T0901317 (1) and GW3965 (2). […] Isolation of murine HCC organoid cultures was performed from liver tumors derived from C57BL/6 mice using established protocols.[26] The animal experiments were approved by committees of the regional authority of the state of Baden-Wuerttemberg (Regierungspraesidium Tuebingen, authorization number M15/18G) as appropriate. After digestion, the organoids were embedded in 100% Growth Factor Reduced (GFR) MatrigelTM (Corning) and cultured at 37 °C and 5% CO2 in HCC organoid medium supplemented with nicotinamide (10 mM), N-acetylcystein (1.25 mM), human HGF (50 ng/mL), human FGF-10 (100 ng/mL), human R-Spondin (0.5 μg/mL), forskolin (10 μM), A83- 01 (0.5 μM), murine Noggin (50 ng/mL), gastrin I (10 nM), human BMP-7 (25 ng/mL), human Wnt3a (100 ng/mL), B27 supplement (1×) and N2 supplement (1×). The cultures were split by mechanical dissociation every 3 to 4 days. […] Cell viability was determined after 5 days of treatment using the CellTiter-Glo 3D Cell Viability Assay Kit (Promega). Cell viability of Hep3B, AML12, and BNL CL.2 cells was determined after 5 days of treatment in white 96 well plates (Sarstedt) using the CellTiter-Glo 2.0 Cell Viability Assay Kit (Promega). […] The luminescence signal was measured using an […] M PLEX plate reader (Tecan) and the Tecan i-control software (v3.9.1). […]

[3] = test system: VDR, PPARα, PPARγ, ERα, ERβ, FXR, AhR, mCAR; assay: Nuclear receptor panel screening, luciferase reporter assays in HepG2 cells; assay type: cell-based; conditions: HepG2, 10 μM, 24 h
Description: To examine the specificity of compound 40 (and as a control compound 46) toward other nuclear receptors, we assessed their activity in activating eight critical nuclear receptors with cellular reporter assays at saturating concentrations (10 μM). We chose nuclear receptors that are either known to directly or indirectly regulate metabolic processes in the liver, including vitamin D receptor (VDR), peroxisome proliferator-activated receptors α and γ (PPAR α and γ), estrogen receptor α and β (ERα and β) and farnesoid X receptor (FXR) or are relevant in drug metabolism such as aryl hydrocarbon receptor (AhR) and the mice constitutive androstane receptor (mCAR).
For nuclear receptor panel screening, the HepG2 cell line (obtained by American Type Culture Collection) was maintained in DMEM (Gibco) supplemented with 10% FBS+ 1% nonessential amino acids medium and incubated at 37 °C. Plasmids for mouse constitutive androstane receptor (mCAR) and its luciferase gene reporter construct p2B6-luc have been described in Mejdrová et al.[24] Other luciferase reporter constructs have been described in Stefela et al.[25] The transient transfection experiments were performed on 48-well format plates 24 h after cell seeding (1.1 × 10^5 per well). The Lipofectamine 3000 transfection reagent was used according to the manufacturer’s instructions. […]

O=C1C(Nc2ccc(N3CCCCC3)cc2)=C(c2ccccc2)C(=O)N1Cc1ccccc1 [Compound 40, 1-Benzyl-3-phenyl-4-((4-(piperidin-1-yl)phenyl)amino)-1H-pyrrole-2,5-dione]
pEC50 [1]: 6.58
therapeutic efficacy (cell viability) in combination with sorafenib [2]: further improved therapeutic efficacy
activation of eight other nuclear receptors [3]: no relevant activation
